Data: patent US10053434B2, “Histone deacetylase inhibitors and compositions and methods of use thereof” (CHDI Foundation, Inc., priority 2015, dated 2018)
Structures can show the parent of a compound that is named as a salt.

Columns and labels:
[1] = tested on: Cellular Class I HDAC activity; assay: Inhibition of cellular Class I HDAC activity; Cell (Lys-Ac) substrate, Jurkat E6-1 cells; format: cell-based; conditions: Boc-Lys(Ac)-AMC substrate
From the text: (§1) The potency of Class IIa Histone Deacetylase (HDAC) inhibitors was quantified by measuring the cellular histone deacetylase enzymatic activity using the fluorogenic substrate, Boc-Lys(TFA)-AMC. After penetration in Jurkat E6-1 cells, the substrate was deacetylated to Boc-Lys-AMC. After cell lysis and cleavage by trypsin, the fluorophore AMC was released from the deacetylated substrate only. The fluorescence of the sample was directly related to the histone deacetylase activity in the sample.
(§2) Jurkat E6.1 cells were cultured according to standard cell culture protocols in Jurkat E6.1 Growth Media (RPMI without phenol red, 10% FBS, 10 mM HEPES, and 1 mM Sodium Pyruvate). Jurkat E6.1 cells were counted using a Coulter Counter and resuspended in Jurkat E6.1 growth media at a concentration of 75,000 cells/35 μL. 35 μL or 75,000 cells was seeded into Greiner microtitre assay plates. The plates were then incubated at 37° C. and 5% CO2 while other assay components were being prepared.
(§3) Serial dilutions of the HDAC inhibitors and control reference compound (1-(5-(3-((4-(1,3,4-oxadiazol-2-yl)phenoxy)methyl)-1,2,4-oxadiazol-5-yl)thiophen-2-yl)-2,2,2-trifluoroethanone) were made by first resuspending the lyophilized compound to a final concentration of 10 mM in 100% DMSO. Stocks of 70 μL aliquots of the 10 mM compound in DMSO were prepared and stored at −20° C. From one stock aliquot of each tested compound and the reference compound, a 16-point serial dilution was prepared according to Table 1 using a 125 μL 16-channel Matrix multi-channel pipette.
(§4) 2 μL (200×) of each diluted solution and each control (full activity: 100% DMSO alone or full inhibition 1 mM) was stamped into V-bottom polypropylene 384-well compound plates using either the Bravo, Janus, or 12.5 μL 16-channel Matrix multi-channel pipette. Each well with the 200× compound solution was diluted 1:20 by the addition of 38 μL Jurkat assay buffer+DMSO (9.5% DMSO, RPMI without phenol red, 0.09% FBS, 9 mM Hepes, and 0.9 mM Sodium Pyruvate equilibrated to r.t.)
(§5) 5× (500 μM) substrate was prepared just prior to the addition to the assay. The 5× substrate was prepared by diluting a 100 mM Boc-Lys(TFA)-AMC in DMSO solution 1:200 by adding it drop-wise to Jurkat assay medium (RPMI without phenol red, 0.1% FBS, 10 mM Hepes, and 1 mM Sodium Pyruvate equilibrated to 37° C.) while vortexing at slow speed to prevent precipitation.
(§6) 10 mL of 3× lysis buffer was prepared with 8.8 mL of 3× stock lysis buffer (50 mM Tris-HCl, pH 8.0, 137 mM NaCl, 2.7 mM KCl, 1 mM MgCl2, 1% Nonidet P40 Substitute equilibrated to r.t.) and 1.2 mL of 3 mg/mL Trypsin equilibrated to r.t.
(§7) 5 μL of each solution of 1:20 diluted compound from above was transferred to the Greiner microtitre assay plates with 75,000 cells/well using the Bravo. Cells were then incubated for 2 hours at 37° C. and 5% CO2. The assay was then started by adding 10 μL of 5× (500 μM) substrate to the assay plate using either the Bravo or 16-channel Matrix multi-channel pipette. The cells were then incubated for 3 hours at 37° C. and 5% CO2. Next, 25 μL of 3× lysis buffer was added to each well using either the 125 μL 16 channel pipette or the Bravo. The assay plate was then incubated overnight (15-16 hours) at 37° C. and 5% CO2. The following day, the plates were shaken on an orbital shaker for 1 minute at 900 rpm. Finally the top read fluorescence (Excitation: 355 nm, Emission: 460 nm) was measured using PerkinElmer EnVision.
Example 30: Analysis of Inhibition of Cellular Class I HDAC Activity with Class IIa Histone Deacetylase (HDAC) Inhibitors; Cell (Lys-Ac) Substrate
The Class I HDAC activity of Class IIa Histone Deacetylase (HDAC) inhibitors was quantified by measuring the cellular histone deacetylase enzymatic activity using the fluorogenic substrate, Boc-Lys(Ac)-AMC. This was performed according to the procedure in Example 29, using Boc-Lys(Ac)-AMC substrate in place of Boc-Lys(TFA)-AMC.

[2] = target: human catalytic domain HDAC4 protein (amino acids 648-1032) (Homo sapiens (Human), UniProt P56524); assay: HDAC4 catalytic domain enzymatic activity, fluorogenic substrate Boc-Lys(TFA)-AMC; conditions: read-out: HDAC4 Biochemical IC50
Sequence of human catalytic domain HDAC4 protein (amino acids 648-1032) (P56524 648-1032): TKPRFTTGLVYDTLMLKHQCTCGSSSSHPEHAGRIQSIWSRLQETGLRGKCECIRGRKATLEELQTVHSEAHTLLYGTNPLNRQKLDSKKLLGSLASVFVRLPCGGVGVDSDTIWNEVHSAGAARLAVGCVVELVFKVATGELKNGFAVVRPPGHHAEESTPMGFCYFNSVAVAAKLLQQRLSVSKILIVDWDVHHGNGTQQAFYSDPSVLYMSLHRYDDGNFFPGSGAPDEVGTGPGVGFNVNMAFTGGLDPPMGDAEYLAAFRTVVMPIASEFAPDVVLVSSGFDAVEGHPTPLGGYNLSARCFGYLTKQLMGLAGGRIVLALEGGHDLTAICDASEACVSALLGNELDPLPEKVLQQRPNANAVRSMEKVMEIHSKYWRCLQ
From the text: Example 25: Analysis of Inhibition of HDAC4 with Class IIa Histone Deacetylase (HDAC) Inhibitors
The potency of Class IIa Histone Deacetylase (HDAC) inhibitors was quantified by measuring the Histone Deacetylase 4 (HDAC4) catalytic domain enzymatic activity using the fluorogenic substrate, Boc-Lys(TFA)-AMC. The substrate was deacetylated to Boc-Lys-AMC by HDAC4. […] The fluorescence of the sample was directly related to the histone deacetylase activity in the sample.
(§8) Serially Dilute HDAC Inhibitor Compounds.
as §3, with “dimethyl sulfoxide (DMSO).” for “DMSO.”, “60” for “70”, “pipette (Matrix Technologies Ltd).” for “pipette.”
2 μL (200×) of each diluted solution and each control (full activity: 100% DMSO alone or full inhibition 1 mM) was stamped into V-bottomed polypropylene 384-well compound plates using either the Bravo (384-well head from Agilent) or 12.5 μL 16-channel Matrix multi-channel pipette (Matrix Technologies Ltd). Each well with the 200× compound solution was diluted 1:20 by the addition of 38 μL assay buffer+DMSO (10.5% DMSO, 45 mM Tris-HCl, 123 mM NaCl, 2.4 mM KCl, and 0.9 mM MgCl2 at pH 8.0 and equilibrated to r.t.).
Prepare HDAC4 Catalytic Domain Enzyme (0.2 μg/mL).
The HDAC4 catalytic domain enzyme was human catalytic domain HDAC4 protein (amino acids 648-1032) with a C-terminal 6× histidine tag, produced by BioFocus. A working solution of enzyme was prepared from a […] stock aliquot of HDAC4 catalytic domain (thawed on ice) diluted to 0.2 μg/mL with assay buffer (50 mM Tris-HCl, 137 mM NaCl, 2.7 mM KCl, and 1 mM MgCl2 at pH 8 and equilibrated to r.t.) just prior to the addition of the enzyme to the assay.
Prepare 5× (50 μM) Boc-Lys(TFA)-AMC Substrate.
5× (50 μM) substrate was prepared just prior to the addition to the assay. A 1 mM substrate stock was made by diluting a 100 mM Boc-Lys(TFA)-AMC in DMSO solution 1:100 by adding it drop-wise to assay buffer (equilibrated to r.t.) while vortexing at slow speed to prevent precipitation. The 5× substrate was prepared by diluting the 1 mM substrate solution 1:20 by adding it drop-wise to assay buffer (equilibrated to r.t.) while vortexing at slow speed to prevent precipitation.
Prepare 3× (30 μM) Developer/Stop Solution.
3× (30 μM) Developer/Stop Solution was prepared just prior to addition to the plate by diluting a stock solution of 10 mM reference compound 1:333 in 25 mg/mL trypsin (PAA Laboratories Ltd.) equilibrated to r.t.
5 μL of each solution of 1:20 diluted compound from above was transferred to a clear bottomed, black, 384-well assay plate using the Bravo or the Janus (384-well MDT head from Perkin Elmer). Using a 16-channel Matrix multi-channel pipette, 35 μL of the working solution of HDAC4 catalytic domain enzyme (0.2 μg/mL in assay buffer) was transferred to the assay plate. The assay was then started by adding 10 μL of 5× (50 μM) substrate to the assay plates using either the Bravo, Janus or 16-channel Matrix multi-channel pipette. The assay plate was then shaken for two minutes on an orbital shaker at 900 rpm (rotations per minute). Next the plate was incubated for 15 minutes at 37° C. The reaction was stopped by adding 25 μL of 3× (30 μM) developer/stop solution to the assay plates using either the Bravo, Janus or a 16-channel Matrix multi-channel pipette. Assay plates were then shaken for 5 minutes on an orbital shaker at 1200 rpm. Next, the assay plates were incubated at 37° C. for 1 hour in a tissue culture incubator. […]

[3] = tested on: Cellular Class IIa HDAC activity; assay: Inhibition of cellular Class IIa HDAC activity; Cell (Lys-TFA) substrate, Jurkat E6-1 cells; format: cell-based; conditions: Boc-Lys(TFA)-AMC substrate
From the text: Example 29: Analysis of Inhibition of Cellular Class IIa HDAC Activity with Class IIa Histone Deacetylase (HDAC) Inhibitors; Cell (Lys-TFA) Substrate
as §1
Jurkat E6.1 Cell Culture and Plating.
as §2, §8, §3, §4
Prepare 5× (500 μM) Boc-Lys(TFA)-AMC Substrate.
as §5, §6, §7

IC50 [1] [nM]	IC50 [2] [nM]	IC50 [3] [nM]	Structure (SMILES)
3700	21	57	C[C@H](CN1CCCC(OC(F)F)C1)NC(=O)c1ccc(-c2noc(C(F)(F)F)n2)cc1 (single isomer, unassigned) [Example 9]
1500	3	7	C[C@H](CN1CCCC(OC(F)F)C1)NC(=O)c1ccc(-c2noc(C(F)(F)F)n2)cc1 (single isomer, unassigned) [Example 10]
7800	22	150	C[C@H](CN1CC2CCCC21)NC(=O)c1ccc(-c2noc(C(F)(F)F)n2)cc1 (single isomer, unassigned) [Example 20]
> 50000	77	750	O=C(N[C@@H](CN1CCCC1)C1CC1)c1ccc(-c2noc(C(F)(F)F)n2)cc1 [Example 6, (R)—N-(1-Cyclopropyl-2-(pyrrolidin-1-yl)ethyl)-4-(5-(trifluoromethyl)-1,2,4-oxadiazol-3-yl)benzamide]
2400	9	18	C[C@H](CN1CCc2ccccc2C1)NC(=O)c1ccc(-c2noc(C(F)(F)F)n2)cc1 [Example 7, (R)—N-(1-(3,4-Dihydroisoquinolin-2(1H)-yl)propan-2-yl)-4-(5-(trifluoromethyl)-1,2,4-oxadiazol-3-yl)benzamide]

Second part, the molecule before the results:

Structure (SMILES)	IC50 [1] [nM]	IC50 [2] [nM]	IC50 [3] [nM]
C[C@H](CN1CC2CCCC21)NC(=O)c1ccc(-c2noc(C(F)(F)F)n2)cc1 (single isomer, unassigned) [Example 21]	3100	4	16
Cc1cc(C(=O)N[C@H](C)CN2CCC[C@@H]2C)ccc1-c1noc(C(F)(F)F)n1 [Example 1, (2S)-2-Methyl-1-((R)-2-(3-methyl-4-(5-(trifluoromethyl)-1,2,4-oxadiazol-3-yl)benzamido)propyl)pyrrolidin-1-ium formate]	> 50000	100	1600
O=C(NCCN1CC2CCC(C2)C1)c1ccc(-c2noc(C(F)(F)F)n2)cc1 [Example 2, N-(2-(3-Azabicyclo[3.2.1]octan-3-yl)ethyl)-4-(5-(trifluoromethyl)-1,2,4-oxadiazol-3-yl)benzamide]	4900	140	330
C[C@H](CN1Cc2ccccc2C1)NC(=O)c1ccc(-c2noc(C(F)(F)F)n2)cc1 [Example 3, (R)—N-(1-(Isoindolin-2-yl)propan-2-yl)-4-(5-(trifluoromethyl)-1,2,4-oxadiazol-3-yl)benzamide]	4900	39	140
C[C@H](CN1CC2CC2C1)NC(=O)c1ccc(-c2noc(C(F)(F)F)n2)cc1 (stereo partly drawn) [Example 4, N-((2R)-1-(3-Azabicyclo[3.1.0]hexan-3-yl)propan-2-yl)-4-(5-(trifluoromethyl)-1,2,4-oxadiazol-3-yl)benzamide]	6900	8	51
O=C(N[C@H](CN1CCCC1)C1CC1)c1ccc(-c2noc(C(F)(F)F)n2)cc1 [Example 5, (S)—N-(1-Cyclopropyl-2-(pyrrolidin-1-yl)ethyl)-4-(5-(trifluoromethyl)-1,2,4-oxadiazol-3-yl)benzamide]	25700	48	710
C[C@H](CN1CC(c2ccccc2)C1)NC(=O)c1ccc(-c2noc(C(F)(F)F)n2)cc1 [Example 8, (R)—N-(1-(3-Phenylazetidin-1-yl)propan-2-yl)-4-(5-(trifluoromethyl)-1,2,4-oxadiazol-3-yl)benzamide]	710	14	39
C[C@H](CN1CCCC2(CC2)C1)NC(=O)c1ccc(-c2noc(C(F)(F)F)n2)cc1 [Example 11, (R)—N-(1-(5-Azaspiro[2.5]octan-5-yl)propan-2-yl)-4-(5-(trifluoromethyl)-1,2,4-oxadiazol-3-yl)benzamide]	970	3	9
C[C@H](CN1CCC2(CC1)CC2)NC(=O)c1ccc(-c2noc(C(F)(F)F)n2)cc1 [Example 12, (R)—N-(1-(6-Azaspiro[2.5]octan-6-yl)propan-2-yl)-4-(5-(trifluoromethyl)-1,2,4-oxadiazol-3-yl)benzamide]	4000	30	58
